Consider one substance from patent US20090176798A1, “New compounds III” (Biovitrum AB, priority 2007, published 2009).

Assay [1] relates to JEG-3 cells. As to the kind of experiment: [3H]-thymidine incorporation in JEG-3 cells (leptin assay in non-recombinant system). The class given is cell-based. The note with it: FIG. 5. The procedure:
In JEG-3 cells (choriocarcinoma cell line) leptin is able to stimulate proliferation up to 3 fold (Biol. Reprod. (2007) 76: 203-10). […] The radioactivity incorporated by the cells is an index of their proliferative activity and is measured in counts per minute (CPM) with a liquid scintillation beta counter.
This finding can be applied to test whether a compound is able to either reproduce the effect of leptin on cell proliferation (leptin receptor agonist mimetic) (i.e., a given compound will cause an increase in incorporated [^3H]-Thymidine by the cells) or to inhibit the effect of leptin (antagonistic effect) by preventing the leptin-mediated increase in [^3H]-thymidine incorporation.
This approach has the advantage of using a non-recombinant system and has reasonable reproducibility and robustness.

Assay [2] has as its system JEG-3 cells. Conditions: Biol. Reprod. (2007) 76: 203-10; cited from earlier work.

On to “leptin: a hormone synthesized in fat cells that is believed to act in the hypothalamus to reduce food intake and body weight”, for which, in the assay on JEG-3 cells [1] (JEG-3 cells (choriocarcinoma cell line), read-out: EC50, increase in [3H]-thymidine incorporation), the EC50 was found to be 2.1 nM. Moreover, the concentration of maximal effect on [3H]-thymidine incorporation with JEG-3 cells [1] (JEG-3 cells) was found to be 100 nM. The stimulation of proliferation result in the assay on JEG-3 cells [2] is “up to 3 fold”.
